In this experiment the test system is cultured chick heart cells. Description: Effect of valinomycin on tetraphenylborate enhancement of Tc-MIBI accumulation in high Ko buffer (Table 1). The class given is cell-based. The note with it: for Tc-MIBI Net Uptake: n = 3. As for the experimental part: Monolayers of spontaneously contractile chick ventricular myocardial cells were obtained from disaggregated 10-day old chick embryo hearts by a slight modification of previously published methods (Horres, C. R., et al., In Pinson, A. (ed.), The Heart Cell in Culture, Boca Raton, CRC Press, pp. 77-108 (1987)). Hearts were trimmed of connective tissue and atria, finely minced and serially exposed to 0.024% (w/v) trypsin in Ca^2+ - and Mg^2+ - free Earle's salt solution for 7 minutes at 37° C. Gentle trituration and agitation on an orbital shaker bath aided disaggregation. Cells released from the first exposure were discarded and cells aspirated from the next four exposures were then added to an equal volume of trypsin deactivating solution consisting of ice-cold culture medium. Cells were centrifuged at 400 g for 10 minutes, resuspended and combined in culture medium, counted with a hemocytometer and diluted to yield a suspension of 5×10^5 cells/ml. 12 ml of suspension were incubated in 100 mm plastic culture dishes containing 7 coverslips (25 mm diameter) placed on the bottom of each dish to serve as substrate for cell growth. Cells were maintained in a humidified atmosphere of 5% CO2 /95% air for 3-4 days yielding a confluent layer of spontaneously contractile myocytes on each coverslip.
Radioactive uptake methods have been described in detail (Piwnica-Worms, D., et al, Circ. (in press). Briefly, coverslips with confluent cells were removed from culture media and pre-equilibrated for 40-60 seconds in MEBSS buffer. Uptake and retention experiments were initiated by immersion of coverslips in 60 mm glass Pyrex dishes containing loading solution consisting of buffer with 0.1-0.6 nM [^99m Tc-MIBI] (0.01-0.4 Ci/nmole; 25-100 uCi/ml). Preparations were removed at various times and rinsed three times in 25 ml volumes of ice-cold (2° C.) isotope-free buffer for 8 seconds each to clear extracellular spaces. Preparations and aliquots of the loading buffer and stock solutions were counted in a well-type sodium iodide gamma counter after which cell protein on each coverslip was extracted in 1% sodium dodecylsulfate with 10 mM sodium borate and assayed by the method of Lowry (Lowry, O. H., et al., J. Biol. Chem. 193:265-275 (1951)). Tc-MIBI binding to glass coverslips without cells was used as an estimate of non-specific adhesion to the substrate ([…] obtained with cellular preparations); this value was subtracted from total uptake determinations to derive the cell-associated counts. Use of generator equilibrium equations (Lamson, M. L., et al., i J. Nucl. Med. 16:639-641 (1975)) allowed calculation of absolute moles of Tc-MIBI in solutions and preparations. Results were therefore expressed as fmol cellular Tc-MIBI/mg protein per nM extracellular Tc-MIBI concentration. Division of this value by the cell water space (6.9 ul/mg protein; Chiu, M. L., et al., J. Nucl. Med. (31:1646-1653(1990)) yields a nominal intracellular/extracellular Tc-MIBI accumulation ratio neglecting subcellular compartmentation of the agent.
To further explore the influence of TPB on any potential-independent accumulation of Tc-MIBI in myocytes, preparations were exposed to 130 mM K° 20 mM Clo buffer (Table 1). […] Equilibration of intracellular and extracellular spaces occurred in the presence of high K buffer plus valinomycin under all conditions (in/out ration ~1; P=NS) indicating the lack of any significant potential-independent membrane binding of Tc-MIBI.
Preparations were incubated in high Ko low Clo loading buffer +/- valinomycin (1 ug/ml) for 20 minutes in the presence of TPB (10^-5 M) or for 40 minutes in its absence to determine peak accumulation of Tc-MIBI under each condition. Values are the mean ±SEM. Tc-MIBI in/out ratios were obtained by dividing net uptake values by the cell water space of […] (Chiu, M. L., et al., J. Nucl. 31:1646-1653 (1990)). +p<0.01; * p<0.001 compared to net uptake in 130 mM Ko buffer.

One molecule from patent US5277897A, “In vivo enhancement of cellular accumulation of lipophilic cationic organometallic compounds by reduction of intramembrane potential” (Brigham and Women's Hospital, priority 1992, dated 1994) can be followed below.

Regarding `[C-]#[N+]CC(C)(C)OC.[C-]#[N+]CC(C)(C)OC.[C-]#[N+]CC(C)(C)OC.[C-]#[N+]CC(C)(C)OC.[C-]#[N+]CC(C)(C)OC.[C-]#[N+]CC(C)(C)OC.[Tc]` [Tc-MIBI, hexakis(methoxyisobutylisonitrile)technetium(I)], the “Tc-MIBIi/Tc-MIBIo (in/out ratio)” value by setting is: (130 Ko (no TPB)) 9.5; (130 Ko + TPB 10^-5 M) 13.6; (130 Ko + TPB 10^-5 M + valinomycin 1 ug/ml) 1.1; (130 Ko + valinomycin 1 ug/ml) 0.9. Also, the “Tc-MIBI Net Uptake” value is, setting by setting: (130 Ko (no TPB), 40 minutes) 65.3 ± 5.3 fmol/mg protein/nMo; (130 Ko + TPB 10^-5 M + valinomycin 1 ug/ml, 20 minutes, p<0.001 vs 130 mM Ko) 7.6 ± 0.8 fmol/mg protein/nMo; (130 Ko + TPB 10^-5 M, 20 minutes, p<0.01 vs 130 mM Ko) 93.9 ± 4.4 fmol/mg protein/nMo; (130 Ko + valinomycin 1 ug/ml, 40 minutes, p<0.001 vs 130 mM Ko) 6.2 ± 0.3 fmol/mg protein/nMo. Also, under “all conditions, P=NS”, the “in/out ratio, high K buffer plus valinomycin” value was ~ 1.
